Measured values taken from PMC6257796, “Effects of Eupatilin and Jaceosidin on Cytochrome P450 Enzyme Activities in Human Liver Microsomes” (Molecules, 2010).

Legend:
Assay type in all cases: in vitro ADME
[1] = target: T1, CYP2D6 (Homo sapiens, UniProt P10635); experiment: Cocktail probe assay in pooled human liver microsomes: bufuralol 1'-hydroxylation (IC50); settings: 5.0 μM bufuralol
T1 construct: pooled human liver microsomes (0.25 mg/mL); tissue BD Gentest Co. H161; host or cells: pooled human liver microsomes
T1 sequence (P10635 whole entry): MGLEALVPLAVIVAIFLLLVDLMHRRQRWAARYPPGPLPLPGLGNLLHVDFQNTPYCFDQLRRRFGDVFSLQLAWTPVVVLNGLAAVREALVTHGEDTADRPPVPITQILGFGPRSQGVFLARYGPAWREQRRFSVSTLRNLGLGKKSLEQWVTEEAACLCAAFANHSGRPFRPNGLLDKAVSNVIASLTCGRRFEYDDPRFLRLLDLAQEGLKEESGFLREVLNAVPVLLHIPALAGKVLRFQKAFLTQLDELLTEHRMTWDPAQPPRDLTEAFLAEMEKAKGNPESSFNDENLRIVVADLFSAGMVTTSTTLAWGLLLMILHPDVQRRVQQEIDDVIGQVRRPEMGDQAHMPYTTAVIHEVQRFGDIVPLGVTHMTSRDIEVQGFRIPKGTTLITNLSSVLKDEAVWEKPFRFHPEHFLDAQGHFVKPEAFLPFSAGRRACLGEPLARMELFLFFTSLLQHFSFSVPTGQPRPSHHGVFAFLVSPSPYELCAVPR
Experimental: (§1) The inhibitory potencies (IC50 values) of eupatilin and jaceosidin were determined with CYP assays in the presence and absence of eupatilin and jaceosidin (final concentrations of 0.1−100 μM with acetonitrile concentration of less than 0.5% v/v) using pooled human liver microsomes. Phenacetin O-deethylase, coumarin 7-hydroxylase, amodiaquine N-deethylase, diclofenac hydroxylase, [S]-mephenytoin 4'-hydroxylase, bufuralol 1'-hydroxylase, and midazolam 1'-hydroxylase activities were determined as probe activities for CYP1A2, CYP2A6, CYP2C8, CYP2C9, CYP2C19, CYP2D6, and CYP3A, respectively, using cocktail incubation and tandem mass spectrometry. The incubation mixtures were prepared in a total volume of 200 μL as follows: pooled human liver microsomes (0.25 mg/mL), 1.3 mM NADPH, 3.3 mM MgCl2, 50 mM potassium phosphate buffer (pH 7.4), and a cocktail of probe substrates and various concentrations of eupatilin or jaceosidin (0.1−100 μM). […] After a 3 min preincubation at 37 °C, the reactions were initiated by adding NADPH and incubated for 20 min at 37 °C with shaking in a water bath. After incubation, the reaction was stopped by placing the tubes on ice and adding 100 μL of ice-cold acetonitrile containing internal standards (0.5 μg/mL [^13C,^15N]-acetaminophen for acetaminophen and N-desethylamodiaquine, 0.5 μg/mL [^2H5]-7-hydroxycoumarin for 7-hydroxycoumarin, 2.0 μg/mL [^13C6]-4-hydoxydiclofenac for 4-hydoxydiclofenac, 0.5 μg/mL [^2H3]-4'-hydoxymephenytoin for 4-hydoxymephenytoin and 1'-hydroxymidazolam, and 0.5 μg/mL [^2H7]-1'-hydroxybufuralol for 1'-hydroxybufuralol). The incubation mixtures were then centrifuged at 10,000× g for 5 min. All incubations were performedin triplicate.
(§2) To evaluate the effect of preincubation on inhibitory potency, eupatilin and jaceosidin (0.1−100 μM) were preincubated for 30 min with NADPH, buffer, and microsomes before the addition of the CYP probe substrates. The reaction was started by addition of the cocktail of probe substrates.
(§3) All seven metabolites produced from the cocktail of CYP isoform-specific substrates were simultaneously determined by LC/MS/MS. The system consisted of a tandem quadrupole mass spectrometer (TSQ Quantum Access, ThermoFisher Scientific, CA, USA) coupled with a Nanospace SI-2 LC system. The separation was performed on an Atlantis dC18 column (5 μm, 2.1 mm i.d. × 100 mm, Waters, Waltham, MA, USA) using the gradient elution of a mixture of 5% methanol in 0.1% formic acid (mobile phase A) and 95% methanol in 0.1% formic acid (mobile phase B) at a flow rate of 0.25 mL/min: 10% mobile phase B for 1 min, 10% to 95% mobile phase B for 1 min, 95% mobile phase B for 5 min. […] Quantification was performed by selected reaction monitoring (SRM) of the [M+H]^+ ion and the related product ion for each metabolite. […]

[2] = target: T1, CYP2D6; experiment: Kinetic analysis (Ki, inhibition type) in human liver microsomes: bufuralol 1'-hydroxylation; settings: pooled human liver microsomes
Experimental: (§4) The Ki values and inhibition types (competitive, noncompetitive, uncompetitive, or mixed) were determined for eupatilin and jaceosidin using Lineweaver plots, Dixon plots, and secondary reciprocal plots.
(§5) The reactions were initiated by addition of NADPH at 37 °C and stopped after 15 min by placing the incubation tubes on ice and adding 100 μL of ice-cold methanol containing an internal standard. The incubation mixtures were centrifuged at 10,000' g for 5 min, and aliquots (5 μL) of the supernatants were analyzed by liquid chromatography/tandem mass spectrometry (LC/MS/MS).
(§6) All seven metabolites produced from the cocktail of CYP isoform-specific substrates were simultaneously determined by LC/MS/MS. The system consisted of a tandem quadrupole mass spectrometer (TSQ Quantum Access, ThermoFisher Scientific, CA, USA) coupled with a Nanospace SI-2 LC system. The separation was performed on an Atlantis dC18 column (5 μm, 2.1 mm i.d. × 100 mm, Waters, Waltham, MA, USA) using the gradient elution of a mixture of 5% methanol in 0.1% formic acid (mobile phase A) and 95% methanol in 0.1% formic acid (mobile phase B) at a flow rate of 0.25 mL/min: 10% mobile phase B for 1 min, 10% to 95% mobile phase B for 1 min, 95% mobile phase B for 5 min. The column and autosampler temperatures were 50 °C and 4 °C, respectively. After 1.5 min, the LC eluant was diverted from waste to the mass spectrometer that was fitted with an electrospray ionization (ESI) source and operated in the positive ion mode. The ESI source settings for the ionization of the metabolites were as follows: electrospray voltage, 5.0 kV; vaporizer temperature, 420 °C; capillary temperature 360 °C; sheath gas pressure, 35 psi; auxiliary gas pressure, 10 psi. Quantification was performed by selected reaction monitoring (SRM) of the [M+H]^+ ion and the related product ion for each metabolite. The analytical data were processed using Xcalibur® software (ThermoFisher Scientific).
(§7) The IC50 values (concentration of inhibitor causing 50% inhibition of the original enzyme activity) were calculated using WinNonlin software, a non-linear regression analysis program (Pharsight, Mountain View, CA, USA). The apparent kinetic parameters for inhibitory potential (Ki values) were estimated from the fitted curves using Enzyme Kinetics Ver. 1.3 program (Systat Software Inc., San Jose, CA, USA).

[3] = target: T2, CYP1A2 (Homo sapiens, UniProt P05177); experiment: Cocktail probe assay in pooled human liver microsomes: phenacetin O-deethylation (IC50); settings: 50 μM phenacetin
T2 construct: pooled human liver microsomes (0.25 mg/mL); tissue BD Gentest Co. H161; host or cells: pooled human liver microsomes
T2 sequence (P05177 1-516): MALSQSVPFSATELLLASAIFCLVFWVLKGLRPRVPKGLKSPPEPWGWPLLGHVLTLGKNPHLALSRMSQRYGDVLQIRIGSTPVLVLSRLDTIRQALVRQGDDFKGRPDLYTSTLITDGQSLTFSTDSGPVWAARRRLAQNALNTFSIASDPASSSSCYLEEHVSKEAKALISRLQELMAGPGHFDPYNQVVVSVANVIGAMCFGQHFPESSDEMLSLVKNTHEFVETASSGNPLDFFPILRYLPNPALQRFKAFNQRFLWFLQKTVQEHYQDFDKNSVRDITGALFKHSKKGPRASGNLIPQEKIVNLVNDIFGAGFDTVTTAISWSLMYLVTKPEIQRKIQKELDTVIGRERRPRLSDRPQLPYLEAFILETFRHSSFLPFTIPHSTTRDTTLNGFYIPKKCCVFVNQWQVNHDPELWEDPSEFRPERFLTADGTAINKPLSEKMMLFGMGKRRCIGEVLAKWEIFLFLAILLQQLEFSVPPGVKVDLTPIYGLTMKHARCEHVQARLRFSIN
Experimental: as §1, §2, §3

[4] = target: T3, CYP2C8 (Homo sapiens, UniProt P10632); experiment: Cocktail probe assay in pooled human liver microsomes: amodiaquine N-deethylation (IC50); settings: 2.0 μM amodiaquine, no preincubation
T3 construct: pooled human liver microsomes (0.25 mg/mL); tissue BD Gentest Co. H161; host or cells: pooled human liver microsomes
T3 sequence (P10632 1-490): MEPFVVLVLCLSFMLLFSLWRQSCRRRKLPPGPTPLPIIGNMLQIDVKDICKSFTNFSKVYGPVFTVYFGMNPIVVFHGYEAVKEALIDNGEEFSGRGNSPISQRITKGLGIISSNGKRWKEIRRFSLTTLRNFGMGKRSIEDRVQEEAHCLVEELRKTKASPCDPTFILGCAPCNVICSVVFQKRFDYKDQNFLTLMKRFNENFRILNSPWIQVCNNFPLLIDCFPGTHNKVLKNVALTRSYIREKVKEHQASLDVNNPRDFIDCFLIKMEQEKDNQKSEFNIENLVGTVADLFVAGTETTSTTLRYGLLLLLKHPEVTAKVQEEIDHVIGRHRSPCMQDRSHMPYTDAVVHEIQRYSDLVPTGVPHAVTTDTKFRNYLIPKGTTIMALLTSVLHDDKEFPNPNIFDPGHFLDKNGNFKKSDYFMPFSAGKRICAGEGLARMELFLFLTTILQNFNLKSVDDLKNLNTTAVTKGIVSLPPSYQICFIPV
Experimental: as §1, with “After incubation, the reaction was stopped by placing the tubes on ice and adding 100 μL of ice-cold acetonitrile containing internal standards (0.5 μg/mL [^13C,^15N]-acetaminophen for acetaminophen and N-desethylamodiaquine, 0.5 μg/mL [^2H5]-7-hydroxycoumarin for 7-hydroxycoumarin, 2.0 μg/mL [^13C6]-4-hydoxydiclofenac for 4-hydoxydiclofenac, 0.5 μg/mL [^2H3]-4'-hydoxymephenytoin for 4-hydoxymephenytoin and 1'-hydroxymidazolam, and 0.5 μg/mL [^2H7]-1'-hydroxybufuralol for 1'-hydroxybufuralol). The incubation mixtures were then centrifuged at 10,000× g for 5 min. All incubations were performedin triplicate.” left out
All seven metabolites produced from the cocktail of CYP isoform-specific substrates were simultaneously determined by LC/MS/MS. […] Quantification was performed by selected reaction monitoring (SRM) of the [M+H]^+ ion and the related product ion for each metabolite. […]

[5] = target: T4, CYP2A6 (Homo sapiens, UniProt P11509); experiment: Cocktail probe assay in pooled human liver microsomes: coumarin 7-hydroxylation (IC50); settings: for IC50, coumarin 7-hydroxylation (CYP2A6): pooled human liver microsomes, 2.5 μM coumarin
T4 construct: pooled human liver microsomes (0.25 mg/mL); tissue BD Gentest Co. H161; host or cells: pooled human liver microsomes
T4 sequence (P11509 1-494): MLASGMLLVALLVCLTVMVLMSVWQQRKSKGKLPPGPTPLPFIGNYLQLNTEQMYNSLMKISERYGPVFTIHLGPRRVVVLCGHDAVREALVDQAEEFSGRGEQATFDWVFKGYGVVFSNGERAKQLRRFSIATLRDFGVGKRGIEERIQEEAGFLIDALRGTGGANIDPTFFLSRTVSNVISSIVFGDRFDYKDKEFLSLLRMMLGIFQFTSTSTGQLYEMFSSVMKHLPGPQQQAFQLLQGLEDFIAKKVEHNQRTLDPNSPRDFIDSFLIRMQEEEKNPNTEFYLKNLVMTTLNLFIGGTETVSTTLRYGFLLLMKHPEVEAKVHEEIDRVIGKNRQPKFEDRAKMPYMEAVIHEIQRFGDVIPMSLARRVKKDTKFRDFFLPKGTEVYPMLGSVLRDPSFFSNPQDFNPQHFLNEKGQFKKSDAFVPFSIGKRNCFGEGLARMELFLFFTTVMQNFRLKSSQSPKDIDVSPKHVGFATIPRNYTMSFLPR
Experimental: as §1, §2, §6, §7

[6] = target: T5, CYP2C19 (Homo sapiens, UniProt P33261); experiment: Cocktail probe assay in pooled human liver microsomes: [S]-mephenytoin 4'-hydroxylation (IC50); settings: 50 μM [S]-mephenytoin
T5 construct: pooled human liver microsomes (0.25 mg/mL); tissue BD Gentest Co. H161; host or cells: pooled human liver microsomes
T5 sequence (P33261 whole entry): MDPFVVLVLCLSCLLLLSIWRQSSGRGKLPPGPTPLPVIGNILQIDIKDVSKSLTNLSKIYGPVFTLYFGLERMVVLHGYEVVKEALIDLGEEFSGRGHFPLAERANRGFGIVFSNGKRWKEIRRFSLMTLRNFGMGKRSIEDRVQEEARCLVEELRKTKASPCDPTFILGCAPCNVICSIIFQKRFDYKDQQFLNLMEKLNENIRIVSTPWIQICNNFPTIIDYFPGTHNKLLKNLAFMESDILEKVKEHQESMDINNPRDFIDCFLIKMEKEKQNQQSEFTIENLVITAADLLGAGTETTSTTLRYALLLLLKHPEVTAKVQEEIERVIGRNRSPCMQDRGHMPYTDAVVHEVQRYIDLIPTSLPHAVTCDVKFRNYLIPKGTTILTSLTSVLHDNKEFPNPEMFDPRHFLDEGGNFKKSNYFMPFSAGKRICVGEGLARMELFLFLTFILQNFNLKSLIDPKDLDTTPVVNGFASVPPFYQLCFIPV
Experimental: as §1, §2, §3

[7] = target: T5, CYP2C19; experiment: Kinetic analysis (Ki, inhibition type) in human liver microsomes: [S]-mephenytoin 4'-hydroxylation; settings: pooled human liver microsomes; for Inhibition type, S-mephenytoin 4'-hydroxylation (CYP2C19): Lineweaver, Dixon and secondary reciprocal plots
Experimental: as §4, §5, §6, §7

[8] = target: T2, CYP1A2; experiment: Kinetic analysis (Ki, inhibition type) in human liver microsomes: phenacetin O-deethylation; settings: pooled human liver microsomes
Experimental: as §4, §5, §6, §7

[9] = target: T3, CYP2C8; experiment: Kinetic analysis (Ki, inhibition type) in human liver microsomes: amodiaquine N-deethylation; settings: pooled human liver microsomes
Experimental: as §4, §5, §6, §7

[10] = target: T6, CYP2C9 (Homo sapiens, UniProt P11712); experiment: Cocktail probe assay in pooled human liver microsomes: diclofenac 4-hydroxylation (IC50); settings: 10 μM diclofenac
T6 construct: pooled human liver microsomes (0.25 mg/mL); tissue BD Gentest Co. H161; host or cells: pooled human liver microsomes
T6 sequence (P11712 whole entry): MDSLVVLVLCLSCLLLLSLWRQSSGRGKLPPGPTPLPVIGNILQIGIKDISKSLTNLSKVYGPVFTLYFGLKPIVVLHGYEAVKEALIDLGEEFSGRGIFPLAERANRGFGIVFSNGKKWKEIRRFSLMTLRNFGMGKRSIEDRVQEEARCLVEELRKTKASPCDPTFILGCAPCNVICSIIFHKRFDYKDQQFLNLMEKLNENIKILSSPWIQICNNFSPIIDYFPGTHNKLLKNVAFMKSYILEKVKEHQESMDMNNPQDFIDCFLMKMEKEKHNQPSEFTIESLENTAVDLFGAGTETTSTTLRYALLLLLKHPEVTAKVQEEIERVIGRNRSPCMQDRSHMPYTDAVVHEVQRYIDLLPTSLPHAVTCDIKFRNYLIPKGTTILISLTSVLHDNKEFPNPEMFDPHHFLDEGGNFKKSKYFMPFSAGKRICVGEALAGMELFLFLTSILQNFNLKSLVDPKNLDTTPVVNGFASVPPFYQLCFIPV
Experimental: as §1, §2, §3

[11] = target: T6, CYP2C9; experiment: Kinetic analysis (Ki, inhibition type) in human liver microsomes: diclofenac 4-hydroxylation; settings: pooled human liver microsomes
Experimental: as §4, §5, §6, §7

[12] = tested on: CYP3A; experiment: Cocktail probe assay in pooled human liver microsomes: midazolam 1'-hydroxylation (IC50); settings: for IC50, midazolam 1'-hydroxylation (CYP3A): pooled human liver microsomes, 2.5 μM midazolam
Experimental: as §1, §2, §6, §7

[13] = with 30 min preincubation in presence of NADPH
[14] = Lineweaver, Dixon and secondary reciprocal plots

IC50 ([1]; no preincubation): 58.7 ± 7.6 µM
IC50 [1, 13]: 79.1 ± 7.5 µM
Ki ([2]; 0.5-5 μM bufuralol): 94.6 ± 5.8 µM
Inhibition type, bufuralol 1'-hydroxylation (CYP2D6) [2, 14]: competitive
IC50 ([3]; no preincubation): 9.4 ± 1.5 µM
IC50 [3, 13]: 11.8 ± 1.3 µM
IC50 [4]: > 100 µM
Inhibition of CYP2A6-catalyzed coumarin 7-hydroxylation at the highest concentration tested ([5]; 100 μM, human liver microsomes): negligible inhibition
IC50, coumarin 7-hydroxylation (CYP2A6) ([5]; no preincubation): No inhibition
IC50, coumarin 7-hydroxylation (CYP2A6) [5, 13]: No inhibition
IC50 ([6]; no preincubation): 48.1 ± 12 µM
IC50 [6, 13]: 57.7 ± 16.3 µM
Ki ([7]; 10-100 μM [S]-mephenytoin): 28.7 ± 3.6 µM
Inhibition type, S-mephenytoin 4'-hydroxylation (CYP2C19) [7]: mixed
Inhibition type, S-mephenytoin 4'-hydroxylation (CYP2C19) ([7]; listed as Eupatilin): mixed-type
Ki ([8]; 10-100 μM phenacetin): 2.3 ± 0.18 µM
Inhibition type, phenacetin O-deethylation (CYP1A2) [8, 14]: competitive
Ki ([9]; 0.5-5 μM amodiaquine): 102 ± 8.9 µM
Inhibition type, amodiaquine N-deethylation (CYP2C8) [9, 14]: competitive
IC50 ([10]; no preincubation): 4.1 ± 0.49 µM
IC50 [10, 13]: 4.9 ± 0.91 µM
Ki ([11]; 1-50 μM diclofenac): 1.6 ± 0.17 µM
Inhibition type, diclofenac 4-hydroxylation (CYP2C9) [11, 14]: mixed
Inhibition of CYP3A4-catalyzed midazolam 1'-hydroxylation at the highest concentration tested ([12]; 100 μM, human liver microsomes): negligible inhibition
IC50, midazolam 1'-hydroxylation (CYP3A) ([12]; no preincubation): No inhibition
IC50, midazolam 1'-hydroxylation (CYP3A) [12, 13]: No inhibition
SMILES: COc1ccc(-c2cc(=O)c3c(O)c(OC)c(O)cc3o2)cc1OC [eupatilin, 2-(3,4-dimethoxyphenyl)-5,7-dihydroxy-6-methoxychromen-4-one]
